Biological target: T1, SIRT1 (Homo sapiens, UniProt Q96EB6)
T1 sequence (Q96EB6 1-747): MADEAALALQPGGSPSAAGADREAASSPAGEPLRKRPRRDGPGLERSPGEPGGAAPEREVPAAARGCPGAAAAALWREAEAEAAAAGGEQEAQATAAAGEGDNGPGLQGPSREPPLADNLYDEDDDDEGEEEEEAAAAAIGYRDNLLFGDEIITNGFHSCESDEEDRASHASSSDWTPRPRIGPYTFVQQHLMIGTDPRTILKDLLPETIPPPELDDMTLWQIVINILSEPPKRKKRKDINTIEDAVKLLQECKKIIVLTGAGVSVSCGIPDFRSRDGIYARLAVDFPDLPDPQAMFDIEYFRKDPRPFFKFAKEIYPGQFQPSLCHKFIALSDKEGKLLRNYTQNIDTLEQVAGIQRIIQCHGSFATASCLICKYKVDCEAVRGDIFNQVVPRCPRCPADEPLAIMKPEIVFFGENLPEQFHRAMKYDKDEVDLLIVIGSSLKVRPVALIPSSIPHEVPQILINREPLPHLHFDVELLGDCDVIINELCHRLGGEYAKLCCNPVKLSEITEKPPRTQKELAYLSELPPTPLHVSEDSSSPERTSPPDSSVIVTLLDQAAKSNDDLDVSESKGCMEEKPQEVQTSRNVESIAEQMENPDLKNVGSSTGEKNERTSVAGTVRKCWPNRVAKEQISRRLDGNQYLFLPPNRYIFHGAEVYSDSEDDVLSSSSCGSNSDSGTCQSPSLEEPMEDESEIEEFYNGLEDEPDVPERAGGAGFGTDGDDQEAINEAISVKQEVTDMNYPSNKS
Assay: Trp mass spectrometry assay of SIRT1 activation (Ac-R-H-K-K(Ac)-W-NH2 peptide)
Format: biochemical
Conditions: Trp peptide 0.5 μM, 120 μM βNAD+, 10 nM SIRT1, 25 min at 25° C.; for Emax: 25 min, read-out: TRP MAX RESP (percent maximum fold activation)
Outline: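 N-terminal His-tagged human SIRT1, expressed in BL21(DE3) and purified, was incubated 25 min with an acetylated Trp peptide and NAD plus test compound at varying concentrations, then quenched with formic acid. OAADPR or deacetylated peptide was quantified by mass spectrometry versus compound-free control; EC1.5 is the concentration giving 50% activity increase, with percent maximum activation.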

Row | SMILES | Emax (relative to control (100%)) | TRP Activity (EC1.5, concentration of test compound that results in 150% activation of SIRT1) | TRP MAX RESP (percent maximum fold activation) (relative to control (100%))
1 | O=C(N[C@H](C1CC1)C(F)(F)F)c1ccc2c(n1)N(C(=O)Nc1cc(OC[C@H](O)CO)ccn1)[C@H]1CCN2C1 [Example 88, (4S)—N7-((R)-1-cyclopropyl-2,2,2-trifluoroethyl)-N5-(4-((R)-2,3-dihydroxypropoxy)pyridin-2-yl)-3,4-dihydro-1,4-methanopyrido[2,3-b][1,4]diazepine-5,7(2H)-dicarboxamide] | > 150% | A (EC1.5<1 μM) | 
2 | CC(C#N)NC(=O)c1ccc2c(n1)N(C(=O)Nc1ccccn1)[C@H]1CCN2C1 (single isomer, unassigned) [Example 103] |  | A (EC1.5<1 μM) | 
3 | CC[C@H](NC(=O)c1ccc2c(n1)N(C(=O)Nc1ccccn1)[C@H]1CCN2C1)C(F)(F)F [Example 31, (4S)—N5-(pyridin-2-yl)-N7-((S)-1,1,1-trifluorobutan-2-yl)-3,4-dihydro-1,4-methanopyrido[2,3-b][1,4]diazepine-5,7(2H)-dicarboxamide] | > 150% | A (EC1.5<1 μM) | 
4 | NCC(NC(=O)c1ccc2c(n1)N(C(=O)Nc1ccccn1)[C@H]1CCN2C1)C(F)(F)F (single isomer, unassigned) [Example 223] | > 150% | B (EC1.5 1-25 μM) | 
5 | O=C(OCC(F)(F)F)c1ccc2c(n1)N(C(=O)Nc1ccccn1)[C@H]1CCN2C1 [Example 278, (4S)-2,2,2-trifluoroethyl 5-(pyridin-2-ylcarbamoyl)-2,3,4,5-tetrahydro-1,4-methanopyrido[2,3-b][1,4]diazepine-7-carboxylate] | > 150% | B (EC1.5 1-25 μM) | 
6 | O=C(NC1CC1(F)F)c1ccc2c(n1)N(C(=O)Nc1cnccn1)[C@H]1CCN2C1 (single isomer, unassigned) [Example 273] |  | B (EC1.5 1-25 μM) | A (Fold activation≥150%)
7 | CCNC(=O)c1ccnc(NC(=O)N2c3nc(C(=O)N[C@H](C)C(F)(F)F)ccc3N3CC[C@H]2C3)c1 [Example 304, (4S)—N5-(4-(ethylcarbamoyl)pyridin-2-yl)-N7-((R)-1,1,1-trifluoropropan-2-yl)-3,4-dihydro-1,4-methanopyrido[2,3-b][1,4]diazepine-5,7(2H)-dicarboxamide] | < 150% | A (EC1.5<1 μM) | 
8 | O=C(N[C@H]1C[C@H](O)C1)c1ccc2c(n1)N(C(=O)Nc1ccccn1)[C@H]1CCN2C1 (racemic) [Example 210, (4S)—N7-((1r,3S)-3-hydroxycyclobutyl)-N5-(pyridin-2-yl)-3,4-dihydro-1,4-methanopyrido[2,3-b][1,4]diazepine-5,7(2H)-dicarboxamide] | > 150% | B (EC1.5 1-25 μM) | 
9 | Cc1ccc(NC(=O)N2c3nc(C(=O)NCC4CC4)ccc3N3CC[C@H]2C3)nc1 [Example 111, (4S)—N7-(cyclopropylmethyl)-N5-(5-methylpyridin-2-yl)-3,4-dihydro-1,4-methanopyrido[2,3-b][1,4]diazepine-5,7(2H)-dicarboxamide] | > 150% | A (EC1.5<1 μM) | 
10 | O=C(NC1CCCC1)c1ccc2c(n1)N(C(=O)Nc1ccccn1)[C@H]1CCN2C1 [Example 35, (4S)—N7-cyclopentyl-N5-(pyridin-2-yl)-3,4-dihydro-1,4-methanopyrido[2,3-b][1,4]diazepine-5,7(2H)-dicarboxamide] | > 150% | A (EC1.5<1 μM) | 
11 | C[C@@H](NC(=O)c1ccc2c(n1)N(C(=O)Nc1cc(-c3cnc(C4CC4)s3)ccn1)[C@H]1CCN2C1)C(F)(F)F [Example 325, (4S)—N5-(4-(2-cyclopropylthiazol-5-yl)pyridin-2-yl)-N7-((R)-1,1,1-trifluoropropan-2-yl)-3,4-dihydro-1,4-methanopyrido[2,3-b][1,4]diazepine-5,7(2H)-dicarboxamide] | < 150% | A (EC1.5<1 μM) | 
12 | C[C@@H](NC(=O)c1ccc2c(n1)N(C(=O)Nc1cc(C(=O)O)ccn1)[C@H]1CCN2C1)C(F)(F)F [Example 225, 2-((4S)-7-(((R)-1,1,1-trifluoropropan-2-yl)carbamoyl)-2,3,4,5-tetrahydro-1,4-methanopyrido[2,3-b][1,4]diazepine-5-carboxamido)isonicotinic acid] | > 150% | B (EC1.5 1-25 μM) | 
13 | CC(NC(=O)c1ccc2c(n1)N(C(=O)Nc1ccccn1)[C@H]1CCN2C1)C1CC1 (single isomer, unassigned) [Example 100] | > 150% | A (EC1.5<1 μM) | 
14 | CNC(=O)c1ccc(NC(=O)N2c3nc(C(=O)NCC(F)(F)F)ccc3N3CC[C@H]2C3)nc1 [Example 168, (4S)—N5-(5-(methylcarbamoyl)pyridin-2-yl)-N7-(2,2,2-trifluoroethyl)-3,4-dihydro-1,4-methanopyrido[2,3-b][1,4]diazepine-5,7(2H)-dicarboxamide] | > 150% | A (EC1.5<1 μM) | 
15 | O=C(NC1CC1)c1ccc2c(n1)N(C(=O)Nc1cc(OC[C@H](O)CO)ccn1)[C@H]1CCN2C1 [Example 24, (4S)—N7-cyclopropyl-N5-(4-((R)-2,3-dihydroxypropoxy)pyridin-2-yl)-3,4-dihydro-1,4-methanopyrido[2,3-b][1,4]diazepine-5,7(2H)-dicarboxamide] | > 150% | B (EC1.5 1-25 μM) | 
16 | NC(CNC(=O)c1ccc2c(n1)N(C(=O)Nc1cc(OC[C@H](O)CO)ccn1)[C@H]1CCN2C1)C(F)(F)F (single isomer, unassigned) [Example 196] | > 150% | B (EC1.5 1-25 μM) | 
17 | C[C@@H](NC(=O)c1ccc2c(n1)N(C(=O)Nc1cc(-c3cn[nH]c3)ccn1)[C@H]1CCN2C1)C(F)(F)F [Example 321, (4S)—N5-(4-(1H-pyrazol-4-yl)pyridin-2-yl)-N7-((R)-1,1,1-trifluoropropan-2-yl)-3,4-dihydro-1,4-methanopyrido[2,3-b][1,4]diazepine-5,7(2H)-dicarboxamide] | < 150% | A (EC1.5<1 μM) | 
18 | COCC(O)CNC(=O)c1ccc2c(n1)N(C(=O)Nc1ccccn1)[C@H]1CCN2C1 (single isomer, unassigned) [Example 214] | > 150% | B (EC1.5 1-25 μM) | 
19 | CC(C)(C)CNC(=O)c1ccc2c(n1)N(C(=O)Nc1ccc(F)cn1)[C@H]1CCN2C1 [Example 73, (4S)—N5-(5-fluoropyridin-2-yl)-N7-neopentyl-3,4-dihydro-1,4-methanopyrido[2,3-b][1,4]diazepine-5,7(2H)-dicarboxamide] | > 150% | A (EC1.5<1 μM) | 
20 | O=C(NCC1(CO)CC1)c1ccc2c(n1)N(C(=O)Nc1ccccn1)[C@H]1CCN2C1 [Example 28, (4S)—N7-((1-(hydroxymethyl)cyclopropyl)methyl)-N5-(pyridin-2-yl)-3,4-dihydro-1,4-methanopyrido[2,3-b][1,4]diazepine-5,7(2H)-dicarboxamide] | > 150% | B (EC1.5 1-25 μM) | 
21 | C[C@@H](NC(=O)c1nc2c(cc1Cl)N1CC[C@@H](C1)N2C(=O)Nc1ccccn1)C(F)(F)F [Example 280, (4S)-8-chloro-N5-(pyridin-2-yl)-N7-((R)-1,1,1-trifluoropropan-2-yl)-3,4-dihydro-1,4-methanopyrido[2,3-b][1,4]diazepine-5,7(2H)-dicarboxamide] | > 150% | A (EC1.5<1 μM) | 
22 | O=C(NC1CCC1)c1ccc2c(n1)N(C(=O)Nc1cnccn1)[C@H]1CCN2C1 [Example 206, (4S)—N7-cyclobutyl-N5-(pyrazin-2-yl)-3,4-dihydro-1,4-methanopyrido[2,3-b][1,4]diazepine-5,7(2H)-dicarboxamide] | > 150% | B (EC1.5 1-25 μM) | 
